Test system: NF-κB signaling pathway in MT373 tumors
Assay: MT373 syngeneic sarcoma model: mouse NF-κB signaling pathway profiling panel
Format: in vivo
Conditions: for Ccl2 mRNA downregulation / Csf2 mRNA downregulation / Egfr mRNA downregulation / Fas1 mRNA downregulation / Ifnγ mRNA downregulation / Il1α mRNA downregulation / Il1β mRNA downregulation: 150 mg/kg BID×1

CCn1c(C#CCNc2ccccc2)cc2cc(CNC3CCN(C)CC3)ccc21 [Compound 1, 1-Anilino-3-{1-ethyl-5-[(1-methyl-4-piperidylamino)methyl]-1H-indol-2-yl}-2-propyne]
Ccl5 fold increase over or percent reduction vs vehicle control (150 mg/kg BIDx1, […]): 2.85 ± 0.20 fold or %
Cd27 fold increase over or percent reduction vs vehicle control (150 mg/kg BIDx1, […]): 1.48 ± 0.16 fold or %
Cd40 fold increase over or percent reduction vs vehicle control (150 mg/kg BIDx1, […]): 1.78 ± 0.80 fold or %
Cflar fold increase over or percent reduction vs vehicle control (150 mg/kg BIDx1, […]): 6.22 ± 11.55 fold or %
Chuk fold increase over or percent reduction vs vehicle control (150 mg/kg BIDx1, […]): 1.16 ± 0.33 fold or %
Crebbp fold increase over or percent reduction vs vehicle control (150 mg/kg BIDx1, […]): 16.61 ± 5.43 fold or %
Csf1 fold increase over or percent reduction vs vehicle control (150 mg/kg BIDx1, […]): 1.10 ± 0.10 fold or %
Csf2 fold increase over or percent reduction vs vehicle control (150 mg/kg BIDx1, […]): 2.00 ± 1.31 fold or %
Csf3 fold increase over or percent reduction vs vehicle control (150 mg/kg BIDx1, […]): 52.98 ± 22.53 fold or %
Egfr fold increase over or percent reduction vs vehicle control (150 mg/kg BIDx1, […]): 41.90 ± 8.16 fold or %
Egr1 fold increase over or percent reduction vs vehicle control (150 mg/kg BIDx1, […]): 54.35 ± 3.91 fold or %
Eif2ak2 fold increase over or percent reduction vs vehicle control (150 mg/kg BIDx1, […]): 18.72 ± 7.21 fold or %
Elk1 fold increase over or percent reduction vs vehicle control (150 mg/kg BIDx1, […]): 7.14 ± 8.40 fold or %
F2r fold increase over or percent reduction vs vehicle control (150 mg/kg BIDx1, […]): 1.01 ± 0.12 fold or %
Fadd fold increase over or percent reduction vs vehicle control (150 mg/kg BIDx1, […]): 5.68 ± 5.62 fold or %
Fasl fold increase over or percent reduction vs vehicle control (150 mg/kg BIDx1, […]): 3.17 ± 0.74 fold or %
Fos fold increase over or percent reduction vs vehicle control (150 mg/kg BIDx1, […]): 44.44 ± 21.93 fold or %
Hmox1 fold increase over or percent reduction vs vehicle control (150 mg/kg BIDx1, […]): 40.88 ± 33.56 fold or %
Icam1 fold increase over or percent reduction vs vehicle control (150 mg/kg BIDx1, […]): 1.41 ± 0.25 fold or %
Ifng fold increase over or percent reduction vs vehicle control (150 mg/kg BIDx1, […]): 3.22 ± 0.99 fold or %
Ikbkb fold increase over or percent reduction vs vehicle control (150 mg/kg BIDx1, […]): 6.97 ± 8.47 fold or %
Ikbke fold increase over or percent reduction vs vehicle control (150 mg/kg BIDx1, […]): 0.36 ± 10.26 fold or %
Ikbkg fold increase over or percent reduction vs vehicle control (150 mg/kg BIDx1, […]): 9.50 ± 15.53 fold or %
Il1a fold increase over or percent reduction vs vehicle control (150 mg/kg BIDx1, […]): 1.02 ± 0.18 fold or %
Il1b fold increase over or percent reduction vs vehicle control (150 mg/kg BIDx1, […]): 1.39 ± 0.34 fold or %
Il1r1 fold increase over or percent reduction vs vehicle control (150 mg/kg BIDx1, […]): 28.14 ± 8.59 fold or %
Il10 fold increase over or percent reduction vs vehicle control (150 mg/kg BIDx1, […]): 34.39 ± 10.47 fold or %
Irak1 fold increase over or percent reduction vs vehicle control (150 mg/kg BIDx1, […]): 5.30 ± 10.81 fold or %
Irak2 fold increase over or percent reduction vs vehicle control (150 mg/kg BIDx1, […]): 1.05 ± 0.12 fold or %
Irf1 fold increase over or percent reduction vs vehicle control (150 mg/kg BIDx1, […]): 1.11 ± 0.14 fold or %
Jun fold increase over or percent reduction vs vehicle control (150 mg/kg BIDx1, […]): 26.73 ± 6.02 fold or %
Lta fold increase over or percent reduction vs vehicle control (150 mg/kg BIDx1, […]): 1.87 ± 0.82 fold or %
Ltbr fold increase over or percent reduction vs vehicle control (150 mg/kg BIDx1, […]): 1.13 ± 0.10 fold or %
Map3k1 fold increase over or percent reduction vs vehicle control (150 mg/kg BIDx1, […]): 16.75 ± 8.45 fold or %
Mapk3 fold increase over or percent reduction vs vehicle control (150 mg/kg BIDx1, […]): 19.93 ± 6.52 fold or %
Myd88 fold increase over or percent reduction vs vehicle control (150 mg/kg BIDx1, […]): 9.52 ± 8.80 fold or %
Nfkb1 fold increase over or percent reduction vs vehicle control (150 mg/kg BIDx1, […]): 5.72 ± 2.88 fold or %
Nfkb2 fold increase over or percent reduction vs vehicle control (150 mg/kg BIDx1, […]): 1.01 ± 0.10 fold or %
Nfkbia fold increase over or percent reduction vs vehicle control (150 mg/kg BIDx1, […]): 8.21 ± 16.85 fold or %
Nod1 fold increase over or percent reduction vs vehicle control (150 mg/kg BIDx1, […]): 0.36 ± 14.65 fold or %
Raf1 fold increase over or percent reduction vs vehicle control (150 mg/kg BIDx1, […]): 7.66 ± 4.64 fold or %
Rel fold increase over or percent reduction vs vehicle control (150 mg/kg BIDx1, […]): 4.74 ± 2.26 fold or %
Rela fold increase over or percent reduction vs vehicle control (150 mg/kg BIDx1, […]): 20.75 ± 9.37 fold or %
Relb fold increase over or percent reduction vs vehicle control (150 mg/kg BIDx1, […]): 14.05 ± 6.91 fold or %
Ripk1 fold increase over or percent reduction vs vehicle control (150 mg/kg BIDx1, […]): 2.92 ± 15.10 fold or %
Ripk2 fold increase over or percent reduction vs vehicle control (150 mg/kg BIDx1, […]): 1.11 ± 0.29 fold or %
Slc20a1 fold increase over or percent reduction vs vehicle control (150 mg/kg BIDx1, […]): 20.53 ± 3.61 fold or %
Smad3 fold increase over or percent reduction vs vehicle control (150 mg/kg BIDx1, […]): 0.01 ± 11.30 fold or %
Stat1 fold increase over or percent reduction vs vehicle control (150 mg/kg BIDx1, […]): 1.20 ± 0.33 fold or %
Tbk1 fold increase over or percent reduction vs vehicle control (150 mg/kg BIDx1, […]): 1.03 ± 0.18 fold or %
Tlr1 fold increase over or percent reduction vs vehicle control (150 mg/kg BIDx1, […]): 1.33 ± 0.37 fold or %
Tlr2 fold increase over or percent reduction vs vehicle control (150 mg/kg BIDx1, […]): 1.05 ± 0.08 fold or %
Tlr3 fold increase over or percent reduction vs vehicle control (150 mg/kg BIDx1, […]): 1.02 ± 0.15 fold or %
Tlr4 fold increase over or percent reduction vs vehicle control (150 mg/kg BIDx1, […]): 1.04 ± 0.09 fold or %
Tlr6 fold increase over or percent reduction vs vehicle control (150 mg/kg BIDx1, […]): 0.43 ± 6.189 fold or %
Tlr9 fold increase over or percent reduction vs vehicle control (150 mg/kg BIDx1, […]): 1.29 ± 0.19 fold or %
Tnf fold increase over or percent reduction vs vehicle control (150 mg/kg BIDx1, […]): 1.12 ± 0.27 fold or %
Tnfaip3 fold increase over or percent reduction vs vehicle control (150 mg/kg BIDx1, […]): 11.08 ± 10.07 fold or %
Tnfrsf1a fold increase over or percent reduction vs vehicle control (150 mg/kg BIDx1, […]): 17.69 ± 12.43 fold or %
Tnfrsf1b fold increase over or percent reduction vs vehicle control (150 mg/kg BIDx1, […]): 1.08 ± 0.19 fold or %
Tnfrsf10b fold increase over or percent reduction vs vehicle control (150 mg/kg BIDx1, […]): 1.19 ± 15.33 fold or %
Tnfsf10 fold increase over or percent reduction vs vehicle control (150 mg/kg BIDx1, […]): 1.18 ± 0.41 fold or %
Tnfsf14 fold increase over or percent reduction vs vehicle control (150 mg/kg BIDx1, […]): 1.09 ± 0.34 fold or %
Tollip fold increase over or percent reduction vs vehicle control (150 mg/kg BIDx1, […]): 13.73 ± 7.04 fold or %
Tradd fold increase over or percent reduction vs vehicle control (150 mg/kg BIDx1, […]): 1.02 ± 0.22 fold or %
Traf2 fold increase over or percent reduction vs vehicle control (150 mg/kg BIDx1, […]): 1.01 ± 0.11 fold or %
Traf3 fold increase over or percent reduction vs vehicle control (150 mg/kg BIDx1, […]): 17.66 ± 4.06 fold or %
Traf5 fold increase over or percent reduction vs vehicle control (150 mg/kg BIDx1, […]): 1.10 ± 0.12 fold or %
Traf6 fold increase over or percent reduction vs vehicle control (150 mg/kg BIDx1, […]): 12.35 ± 5.34 fold or %
Zap70 fold increase over or percent reduction vs vehicle control (150 mg/kg BIDx1, […]): 2.40 ± 0.39 fold or %
Ccl2 mRNA downregulation (24 h): 57.69%
Csf2 mRNA downregulation (24 h): 61.29%
Egfr mRNA downregulation (24 h): 28.45%
Fas1 mRNA downregulation (24 h): 31.85%
Ifnγ mRNA downregulation (24 h): 35.82%
Il1α mRNA downregulation (24 h): 13.50%
Il1β mRNA downregulation (24 h): 63.25%
Ccl2 mRNA downregulation (48 h): 67.28%
Csf2 mRNA downregulation (48 h): 62.24%
Egfr mRNA downregulation (48 h): 24.42%
Ifnγ mRNA downregulation (48 h): 43.46%
Il1α mRNA downregulation (48 h): 28.88%
Il1β mRNA downregulation (48 h): 18.73%
Ccl2 mRNA downregulation (72 h): 52.53%
Fas1 mRNA downregulation (72 h): 42.85%
Ifnγ mRNA downregulation (72 h): 22.04%
Il1α mRNA downregulation (72 h): 63.60%
Il1β mRNA downregulation (72 h): 84.09%
Egfr mRNA downregulation ([…]): 41.90%
